Data reported in EP0238982B1, “Anticholinergic compounds, pharmaceutical compositions and method of treatment” (UNIVERSITY OF FLORIDA, priority 1986, dated 1987).
Read-outs that look alike come from different tables or passages of the source.

Tests used:
[1] = tested on: carbachol-induced spasms of strips of ileum; test: Anticholinergic activity in vitro: inhibition of carbachol-induced spasms of guinea pig ileum strips; type: cell-based; settings: for Kb: Cavia porcellus
Protocol: The anticholinergic activity of all the new compounds was investigated in vitro by studying the inhibitory action of the drugs on carbachol-induced spasms of strips of ileum from freshly killed guinea pigs. The terminal ileum from guinea pig (200-500 g) was cut into 2-3 cm strips and suspended in freshly prepared Tyrode's solution in 40 ml organ bath. The solution was aerated with 95% oxygen and 5% carbon dioxide at 37°C. A tension of 1 g was applied to the tissue, and cumulative-response curves recorded with carbachol until constant responses were obtained. A concentration of the antagonist was then added to the bath and after 10 seconds, further concentration response curves to carbachol were established. This procedure was then repeated using increasing concentrations of the antagonist. EC₅₀ was calculated for carbachol alone and for carbachol in the presence of the various antagonist concentrations. Atropine was used as standard for comparison. The PA₂ was calculated as follows: PA₂ = log ((A)/(a)-1) -log [antagonist] [formula] A = EC₅₀ or carbachol in presence of the antagonist a = EC₅₀ for carbachol alone before adding antagonist

[2] = Hydrolytic rate constants in aqueous buffered solution at pH 12, 37°C (HPLC); type: physicochemical; settings: for observed First Order Hydrolytic Rate Constants (k) K ± S.E: average of three runs ± S.E.M.
Protocol: A high pressure liquid chromatography (HPLC) method was used for the determination of rate of hydrolysis of the newly prepared tropanyl esters in aqueous buffered solution at pH 12.0 and in human plasma.
(§1) The chromatographic analysis was performed in a system consisting of LCD/Milton Roy Consta Metric III metering pump and LCD UV III Monitor Detector operated at 254 nm. A 30 cm x 3.9 mm (internal diameter) reverse phase ASI/U Bondpak C18 column operated at ambient temperature was used for the analysis. The mobile phase consisted of 32% acetonitrile in 0.01 M potassium dihydrogen phosphate, 0.004 M 1-octanesulfonic acid, sodium in 0.1% acetic acid at a flow rate of 2.3 ml/min.
Sodium hydroxide and sodium dibasic phosphate were used to prepare the buffer at pH 12. The ionic strength was maintained at 0.1 M with sodium chloride.
One hundred microliters of a freshly prepared solution of the compound in methanol was added to 10 ml buffered solution, previously equilibrated to 37°C in a water bath and mixed thoroughly to make an initial concentration of 6 x 10⁻³ mol. liter⁻¹. Samples of 100 µl were injected into the column at various time intervals. […] A mobile phase of 40% acetonitrile was used to separate compounds 4 and 6 at a flow rate of 2.0 ml/min.
The previous method adapted for the hydrolysis of compounds 1, 2, 3 and 5 was used for the determination of rate of hydrolysis of compounds 4, 6 and 7. In case of compounds 4 and 6, the mobile phase is 40% acetonitrile, 0.01 M KH₂PO₄, 0.04M 1-octanesulfonic acid sodium salt and 0.1% HAC, at a flow rate 2 ml/min.

[3] = Enzymatic hydrolysis in rat liver homogenate at 37°C (HPLC); type: in vitro ADME, Sprague-Dawley rats; settings: for Rates of hydrolysis in liver homogenate K ± S.E.: 20% rat liver homogenate; for half-life / half-life at 6000 µM: rat, liver homogenate
Protocol: The liver homogenate was prepared by the following method. Two Sprague-Dawley rats were killed by decapitation, and the livers were removed, weighed and homogenized in a tissue homogenizer in 0.11 M aqueous phosphate buffer, pH 7.4, to make 20% liver homogenate. The homogenate was centrifuged and the supernatant was used for the test. 100 l of 0.6 M solution of the ester in methanol was mixed with 10 ml of the homogenate, previously equilibrated to 37°C in a water bath, to result in an initial concentration of 6 x 10⁻³ mol/liter⁻¹. samples of 1.0 ml were withdrawn at time intervals from the medium, added immediately to 3 ml ice-cold acetonitrile, shaken vigorously, and placed in a freezer. When all samples had been collected, they were centrifuged, and each supernantant was analyzed by HPLC.

[4] = Enzymatic hydrolytic cleavage rates in human plasma at 37°C (HPLC); type: in vitro ADME; set-up: half-life: dose or concentration left out as unconfirmed; settings: for half-life: read-out: half lives (t 1/2) (converted)
Protocol: as §1
Freshly collected plasma was used which contained about 80% plasma diluted with anticoagulant citrate phosphate dextrose solution, U.S.P.
A 100 µl volume of a freshly prepared solution of the compound in methanol was added to 10 ml plasma, previously equilibrated a 37°C in a water bath, and mixed thoroughly to result in an initial concentration of 6 x 10⁻³ mol. liter⁻¹. One ml samples of plasma were withdrawn from the test medium, mixed immediately with 3 ml ice cold acetonitrile, centrifuged and the supernatant analyzed by HPLC. The first order hydrolytic rate constant was determined by following the disappearance of the compound as function of time.

[5] = Hydrolysis of tertiary ethyl ester (2) and formation of its degradation product (7) at pH 12, 37°C (HPLC); type: physicochemical; set-up: dose or concentration left out as unconfirmed; settings: 0.01 N NaOH pH at 37°C, read-out: t 1/2, hydrolysis (disappearance) of tertiary ethyl ester (2)
Protocol: The mobile phase used for the separation of compound (2) and its degradation product, the half ester (7) consisted of 32% MeCN, 0.01M KH₂PO₄, 0.004M 1-octanesulfonic acid sodium salt and 0.1% acetic acid. At flow rate of 1.5 ml/min (2) and (7) have retention times of 9 min and 4.6 min, respectively.
100 microliters of a freshly prepared solution of compound (2) in methanol was added to 10 ml buffered solution (pH 12), previously equilibrated to 37°C in a water bath to result in an initial concentration of 6 x 10⁻³ mol liter⁻¹. Samples of 1 ml were taken at time intervals and mixed with 3 ml of acetonitrile. 100 microliters of the collected samples were injected and disappearance of (2) and formation of (7) was followed by HPLC.

[6] = Hydrolysis of tropanyl hydrogen phenyl malonate (7) to the dibasic acid (8) at pH 12, 37°C (HPLC); type: physicochemical; settings: 0.01 n naoh; 0.01 N sodium hydroxide, pH 12 at 37°C; read-out: t 1/2, hydrolysis (disappearance) of (7)
Protocol: The previously described method for the determination of rate of hydrolysis of compound (2) was followed for the determination of hydrolysis of compound (7).
The disappearance of compound (7) was followed by HPLC.
The concentration of the formed dibasic acid was determined by HPLC. 15% acetonitrile, 0.01M KH₂ PO₄ and 0.1% acetic acid was used as a mobile phase. At a flow rate of 2 ml/min, the product has a retention time of 4 min.
The collected samples after determination of rate of disappearance of compound (7) were used for the determination of rate of formation of the hydrolysis product (8). 100 microliters of the sample was injected and the formation of the product was followed by HPLC.

[7] = guinea pig ileum, against carbachol, average of two experiments (compounds 1 and 4: three), read-out: PA2 (converted)
[8] = 0.01 N sodium hydroxide at pH 12.0, at 37°C
[9] = 0.01 n naoh buffer, 0.01 N sodium hydroxide at pH 12.0, at 37°C, read-out: half-life (t 1/2)
[10] = aqueous buffer, aqueous solution pH 12, 37°C, average of three runs, read-out: t 1/2 (Min) AQUEOUS SOLN, pH 12, 37°C
[11] = pH 7.4, 20% rat liver homogenate, pH 7.4, 37°C, read-out: t 1/2 in liver homogenate
[12] = pH 7.4, rat liver homogenate, 37°C, average of three runs, read-out: t 1/2 (Min) RAT LIVER HOMOGENATE, 37°C
[13] = 0.01 m naoh buffer, 0.01 M sodium hydroxide at pH 12 and 37°C, read-out: half lives (t 1/2)
[14] = method of Example 19, quaternary methiodide soft esters, read-out: PA2 QUATERNARY AMINE (converted)

COC(=O)C(C(=O)OC1CC2CCC(C1)N2C)c1ccccc1 (racemic) [Compound 1, Methyl (±)-α-(carboxy)-8-methyl-8-azabicyclo[3·2·1]oct-3-yl-benzeneacetate]
Kb [1, 7]: 282 nM | observed First Order Hydrolytic Rate Constants (k) K ± S.E [2, 8]: 1.43 ± 0.12 x 10^-1 min^-1 | half-life [2, 9]: 4.8 min | half-life [2, 10]: 4.8 min

CCOC(=O)C(C(=O)OC1CC2CCC(C1)N2C)c1ccccc1 (racemic) [Compound 2, Ethyl (±)-α-(carboxy)-8-methyl-8-azabicyclo[3·2·1]oct-3-yl-benzeneacetate]
Kb [1, 7]: 191 nM | Rates of hydrolysis in liver homogenate K ± S.E. ([3]; pH 7.4, 37°C): 1.99 ± 0.996 x 10^-1 min^-1 | half-life [3, 11]: 3.48 min | half-life [3, 12]: 3.48 min | kobsd HUMAN PLASMA, 37°C [4]: 15.0 ± 0.3 x 10^-5 min^-1 | observed first order hydrolytic rate constants (K) ± S.E.M. [4]: 15.0 ± 0.3 x 10^-5 min^-1 | half-life ([4]; human plasma at 37°C): 77.4 h | half-life [5]: 4.19 ± 0.14 min | observed First Order Hydrolytic Rate Constants (k) K ± S.E [2, 8]: 16.9 ± 0.15 x 10^-2 min^-1 | half-life [2, 9]: 4.08 min | half-life [2, 10]: 4.08 min

CC(C)OC(=O)C(C(=O)OC1CC2CCC(C1)N2C)c1ccccc1 (racemic) [Compound 3, isopropyl (±)-α-(carboxy)-8-methyl-8-azabicyclo[3·2·1]oct-3-yl-benzeneacetate]
Kb [1, 7]: 28.2 nM | Rates of hydrolysis in liver homogenate K ± S.E. ([3]; pH 7.4, 37°C): 97.2 ± 0.76 x 10^-3 min^-1 | half-life [3, 11]: 7.12 min | half-life [3, 12]: 7.12 min | kobsd HUMAN PLASMA, 37°C [4]: 6.27 ± 0.3 x 10^-5 min^-1 | observed first order hydrolytic rate constants (K) ± S.E.M. [4]: 6.27 ± 0.3 x 10^-5 min^-1 | half-life ([4]; human plasma at 37°C): 186 h | observed First Order Hydrolytic Rate Constants (k) K ± S.E [2, 8]: 30 ± 0.77 x 10^-3 min^-1 | half-life [2, 9]: 22.8 min | half-life [2, 10]: 22.8 min

CN1C2CCC1CC(OC(=O)C(C(=O)OC1CCCCC1)c1ccccc1)C2 (racemic) [Compound 4, cyclohexyl (±)-α-(carboxy)-8-methyl-8-azabicyclo-[3.2.1]oct-3-yl-benzeneacetate]
Kb [1, 7]: 257 nM | Rates of hydrolysis in liver homogenate K ± S.E. ([3]; pH 7.4, 37°C): 37.0 ± 0.3 x 10^-3 min^-1 | half-life [3, 11]: 18.7 min | half-life [3, 12]: 18.7 min | kobsd HUMAN PLASMA, 37°C [4]: 4.44 ± 0.4 x 10^-5 min^-1 | observed first order hydrolytic rate constants (K) ± S.E.M. [4]: 4.44 ± 0.4 x 10^-5 min^-1 | half-life ([4]; human plasma at 37°C): 270 h | half-life [2, 13]: 182 min | half-life [2, 10]: 182 min

CCOC(=O)C(C(=O)OC1CC2CCC(C1)[N+]2(C)C)c1ccccc1 (racemic) [Compound 5, Ethyl (±)-α-(carboxy)-8-methyl-8-azabicyclo[3·2·1]oct-3-yl benzeneacetate methiodide]
Kb [1, 7]: 13.8 nM | Kb [1, 14]: 14.1 nM | Rates of hydrolysis in liver homogenate K ± S.E. ([3]; pH 7.4, 37°C): 10.5 ± 0.28 x 10^-2 min^-1 | half-life at 6000 µM [3, 11]: 6.6 min | half-life at 6000 µM [3, 12]: 6.6 min | observed first order hydrolytic rate constants (K) ± S.E.M. ([4]; human plasma at 37°C, compound 2 average of 4 runs, the rest 3 runs): 14.1 ± 0.6 x 10^-5 min^-1 | half-life ([4]; human plasma at 37°C): 82.2 h | half-life [2, 9]: 0.85 min | half-life [2, 10]: 0.85 min

C[N+]1(C)C2CCC1CC(OC(=O)C(C(=O)OC1CCCCC1)c1ccccc1)C2 (racemic) [Compound 6, Cyclohexyl (±)-α-(carboxy)-8-methyl-8-azabicyclo-[3·2·1]oct-3-yl benzeneacetate methiodide]
Kb [1, 7]: 44.7 nM | Rates of hydrolysis in liver homogenate K ± S.E. ([3]; pH 7.4, 37°C): 10.4 ± 0.23 x 10^-3 min^-1 | half-life [3, 11]: 66.8 min | half-life [3, 12]: 66.8 min | kobsd HUMAN PLASMA, 37°C [4]: 6.31 ± 0.8 x 10^-5 min^-1 | observed first order hydrolytic rate constants (K) ± S.E.M. [4]: 6.31 ± 0.8 x 10^-5 min^-1 | half-life ([4]; human plasma at 37°C): 183 h | half-life [2, 13]: 1.28 min | half-life [2, 10]: 1.28 min

CN1C2CCC1CC(OC(=O)C(C(=O)O)c1ccccc1)C2 (racemic) [Compound 7, (±)-α-(carboxy)-8-methyl-8-azabicyclo-[3·2·1]oct-3-yl benzeneacetic acid]
Kb [1, 7]: 631 nM | half-life [6]: 331 ± 4.31 min | half-life [2, 13]: 350 min | half-life [2, 10]: 350 min

CC(C)OC(=O)C(C(=O)OC1CC2CCC(C1)[N+]2(C)C)c1ccccc1 (racemic) [VIc, isopropyl (±)-α-(carboxy)-8-methyl-8-azabicyclo[3·2·1]oct-3-yl-benzeneacetate methiodide]
Kb [1, 14]: 24.5 nM

CN1[C@@H]2CC[C@H]1C[C@@H](OC(=O)C(CO)c1ccccc1)C2 (some centres unmarked) [Atropine, reference compound]
PA2 [1]: 8.29 | PA2 TERTIARY AMINE [1]: 8.29
